According to patent US9006191B2, “Silencing of polo-like kinase expression using interfering RNA” (Protiva Biotherapeutics, Inc., priority 2007, dated 2015):
Strand notation (5' to 3'): a small letter for the sugar, then the base; units joined by * are phosphorothioate-linked, units joined directly phosphodiester-linked; [ ] holds rarer units or linkages, { } end groups; capitals alone tell only the bases. d = 2'-deoxy (DNA); m = 2'-O-methyl; r = 2'-OH (RNA)

Tests used:
[1] = system: Flt3-ligand derived murine dendritic cells; assay: Cytokine induction in murine Flt3L dendritic cell cultures (ELISA); format: cell-based, mouse; conditions: murine Flt3L DC, 5 μg/ml siRNA in SNALP, 24 h
Protocol: Cytokine Induction Assays: Flt3-ligand derived murine dendritic cells (Flt3L DC) were generated as described by Gilliet et al. (J. Exp. Med., 195:953-958) using 100 ng/ml murine Flt3-ligand (PeproTech Inc.; Rocky Hill, N.J.) supplemented media. Femurs and tibiae of female Balb/C mice were isolated and rinsed in sterile PBS. The ends of bones were cut and marrow harvested in complete media (RPMI 1640, 10% heat inactivated FBS, 1% penicillin/streptomycin, 2 mM L-glutamine, 1 mM sodium pyruvate, 25 mM HEPES, 50 μM 2-mercaptoethanol). Bone marrow cells were passed through a 70 μm strainer, centrifuged at 1000 rpm for 7 minutes, and resuspended in complete media supplemented with 100 ng/ml murine Flt3L to 2×10^6 cells/ml. 2 mls of cells were seeded in 6-well plates and 1 ml fresh complete media added every two or three days. On day 9 of culture, non-adherent cells were washed in complete media and plated into 96-well plates at concentrations ranging from 0.5 to 2.5×10^5 cells/well. 2′OMe-modified and unmodified (0/0) PLK-1 SNALP were diluted in PBS and added to Flt3L DC cultures at 5 μg/ml siRNA. Cells were incubated for 24 hours at 37° C. before supernatants were assayed for cytokines by ELISA.
Cytokine ELISA: Interferon-α and IL-6 in culture supernatants were quantified using sandwich ELISA kits according to manufacturer's instructions. These were mouse IFN-α (PBL Biomedical; Piscataway, N.J.) and mouse IL-6 (eBioscience; San Diego, Calif.).
In vitro immune stimulation assays. Mouse Flt3L dendritic cell cultures were generated as described previously (65). In brief, bone marrow from Balb/C mice was harvested in complete media (RPMI 1640, 10% FBS, 1% penicillin/streptomycin, 2 mM L-glutamine, 1 mM sodium pyruvate, 25 mM HEPES, 50 uM 2-mercaptoethanol), passed through a 70 micron strainer and resuspended to 2×10^6 cells/mL in complete media supplemented with 100 ng/mL murine Flt3L (Peprotech). Cells were seeded in 6-well plates and 1 mL fresh Flt3L media added every three days. On day 9 of culture, non-adherent cells were plated into 96 well plates at a concentration 2×10^5 cells/well. Formulated siRNA were diluted in PBS and added to the cells for 24 h before supernatants were assayed for cytokines by ELISA.
Cytokine ELISA. All cytokines were quantified using sandwich ELISA kits.

[2] = Multi-dose toxicity study in CD1 ICR mice; format: in vivo, mouse; conditions: 2 mg/kg twice weekly, after 15 and 29 days
Protocol: Groups of CD1 ICR mice were administered PBS, PLK773-1/B, or Luc-U/U SNALP to assess potential cumulative toxicities associated with either PLK-1 silencing or the lipid vehicle. Mice were treated twice weekly at 2 mg/kg siRNA, equivalent to the efficacious dosing regimen in tumor studies. […] All values are mean+/−SD (n=6). No changes in red blood cell parameters were observed.

IFIT1 mRNA, serum IFNα = assay: In vivo immune stimulation assay in Balb/c mice (IFIT1 mRNA, serum IFNα); conditions: SNALP-formulated siRNA IV
Neuro2A cells = assay: Neuro2A cell viability assay (CellTiter-Blue); format: cell-based; conditions: mouse Neuro2A cells, SNALP-formulated siRNA, viability at 72 h relative to PBS
Protocol: Various PLK-1 siRNAs were formulated as SNALP (“2:40” SNALP formulation: 2% PEG-cDMA; 40% DLinDMA; 10% DSPC; and 48% cholesterol) and evaluated for their inhibitory effects on cell growth in vitro. HT29 (human colon adenocarcinoma) or Neuro2A (mouse neuroblastoma) cells were treated with various PLK-1 SNALP at a range of siRNA concentrations and their effect on cell viability was evaluated. Viability of cell cultures is expressed as % viability relative to PBS treated controls.
Additional PLK-1 siRNA molecules were formulated as SNALP (“2:40” SNALP formulation: 2% PEG-cDMA; 40% DLinDMA; 10% DSPC; and 48% cholesterol) and evaluated for their inhibitory effects on cell growth in vitro. HT29 or Neuro2A cells were plated in triplicate at 5000 cells/well and 2500 cells/well, respectively. PLK-1 SNALP dosages were as follows: 25 nM; 5 nM; and 1 nM. Cell viability analysis was performed at 72 hours following transfection. SNALP containing a non-targeting (GFP) siRNA were used as a negative control.
Additional PLK-1 siRNA molecules were formulated as SNALP (“2:40” SNALP formulation: 2% PEG-cDMA; 40% DLinDMA; 10% DSPC; and 48% cholesterol) and evaluated for their inhibitory effects on cell growth in vitro. HT29 or Neuro2A cells were plated in triplicate at 5000 cells/well and 2500 cells/well, respectively. PLK-1 SNALP dosages were as follows: 30 nM; 10 nM; and 3.3 nM. Cell viability analysis was performed at 72 hours following transfection. SNALP containing a non-targeting (GFP) siRNA were used as a negative control.

KSP mRNA = KSP mRNA silencing in Neuro2a cells (bDNA assay); format: cell-based, mouse; conditions: 24 h after transfection
Text: Activity of the 2′OMe-modified panels of (A) PLK1424 and (B) PLK773 siRNA. Unmodified PLK1424 or PLK773 siRNA (black) were compared in the Hep3B cell viability assay to the 2′OMe modified duplexes 1/A, 2/A, 1/B, 2/B, 1/C, or 2/C that comprise the respective 2′OMe sense/antisense oligonucleotides (see, Table 6). Data are mean viability of triplicate cultures relative to PBS treated cells and representative of 2 independent experiments using SNALP-formulated siRNA. (C) Cytokine induction by unmodified and 2′OMe PLK-1 siRNA in vitro. Murine Flt3L DC were treated with 5 μg/mL unmodified PLK773 or PLK1424 siRNA duplexes (773, 1424) and their constituent sense (S) or antisense (AS) oligonucleotides or the 2′OMe siRNA duplexes PLK773-1/B and PLK1424-2/A formulated in SNALP. IFNα and IL-6 were assayed in culture supernates at 24 h. Values are mean+SD of 3 separate experiments conducted in triplicate cultures. (D,E) Activity of SNALP-formulated KSP2263 siRNA in murine Neuro2a cells. (D) Correlation between KSP mRNA silencing and cell viability relative to PBS control. KSP mRNA was determined by bDNA analysis at 24 h. Duplicate plates were assessed for cell viability at 72 h. (E) Activity screen comparing the unmodified KSP2263 siRNA to the panel of 2′OMe-modified duplexes (see, Table 6) in the Neuro2a cell viability assay. Data represents mean+/−SD triplicate cultures, relative to PBS treatment. […]

[3] = SNALP particle size and polydispersity; format: physicochemical
HeLa cells = assay: Monoastral spindle formation in HeLa cells; format: cell-based, human; conditions: 20 nM, 16 h
Protocol: HeLa cells were treated for 16 h with (A) Luc or (B) KSP2263 siRNA at 20 nM then immunostained for α-tubulin (FITC). DNA was stained with DAPI and flourescent images captured and overlayed.

Substance	cytokine (IL-6, IFN-α) response [1]	clinical chemistry and blood counts [2]	serum IFNα / serum cytokine response (IFIT1 mRNA, serum IFNα; 4-6 h)	IFIT1 mRNA induction in liver and spleen (IFIT1 mRNA, serum IFNα; 4 h)	cell viability / inhibition of cell growth (Neuro2A cells)	KSP mRNA (KSP mRNA)	mean SNALP particle size [3] [nm]	polydispersity [3]	monoastral spindle phenotype (HeLa cells)
PLK773-1/B: 2′OMe-modified PLK773 duplex, SEQ ID NO:220/223 (chain 1 AGACCUACCUCCGGAUCAAUU; chain 2 UUGAUCCGNAGNUAGGNCUUU; siRNA; chain 1: sugars from the 5' end r1 m1 r10 m1 r8, backbone not given here; chain 2: chemistry not given here)	completely abrogated	no significant changes in serum liver enzymes, total wbc, lymphocyte and neutrophil counts, platelet numbers, or rbc parameters	no measurable IFNα	no measurable IFNα or increase in IFIT1 mRNA in the liver or spleen	–	–	–	–	–
KSP2263: published siRNA targeting KSP, SEQ ID NO:225/226 (chain 1 rCrUrGrArArGrArCrCrUrGrArArGrArCrArArUdTdT; chain 2 rArUrUrGrUrCrUrUrCrArGrGrUrCrUrUrCrArGdTdT)	–	–	–	–	loss of cell viability at 72 h	dose-dependent reductions in KSP mRNA	88	0.07	monoastral spindles
